Test [1] has as its system NF-κB pathway (SEAP) in THP1-Dual cells. In words: THP-1 Dual cell SEAP assay (L18-MDP stimulated). In kind it is cell-based. As to conditions: read-out: NFkB THP1 IC50.
Test [2] has as its target GST-RIPK2 fusion protein (human RIPK2 amino acids 1-310) (Homo sapiens (Human), UniProt O43353). In words: RIPK2 binding competition assay (TR-FRET, Tracer 199). For orientation: Time-resolved FRET reads energy transfer from a long-lived donor to a nearby acceptor.
Setting [3] is: read-out: RIPK2 IC50, RIPK2 binding competition assay.

SMILES strings stand for the structures. Like-named read-outs stand apart in the source and are kept apart here. Where only a bound is given, the exact number is not on record here.

GST-RIPK2 fusion protein (human RIPK2 amino acids 1-310), sequence (O43353 1-310): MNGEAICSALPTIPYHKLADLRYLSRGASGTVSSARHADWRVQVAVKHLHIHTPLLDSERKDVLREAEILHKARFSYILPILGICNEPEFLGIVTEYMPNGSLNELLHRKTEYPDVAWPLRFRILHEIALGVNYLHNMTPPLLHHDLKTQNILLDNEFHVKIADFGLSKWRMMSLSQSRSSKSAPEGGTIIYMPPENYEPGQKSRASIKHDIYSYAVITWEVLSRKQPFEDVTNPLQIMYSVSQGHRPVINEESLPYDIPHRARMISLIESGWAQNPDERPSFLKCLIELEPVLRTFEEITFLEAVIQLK

As to `CCCS(=O)(=O)Nc1ccc(-c2cnc3cc(OC)c(S(=O)(=O)C(C)(C)C)cn23)cc1OC(F)F` [Example 293, N-(4-(6-(tert-butylsulfonyl)-7-methoxyimidazo[1,2-a]pyridin-3-yl)-2-(difluoromethoxy)phenyl) propane-1-sulfonamide], the IC50 in test [1] (Homo sapiens, THP1-Dual) was more than 1000 nM; in test [2] (setting [3]) it was more than 20 nM.
Regarding `COc1cc2ncc(-c3ccc(F)c(N)c3)n2cc1S(=O)(=O)C(C)(C)C` [Example 127, 5-(6-(tert-butylsulfonyl)-7-methoxyimidazo[1,2-a]pyridin-3-yl)-2-fluoroaniline], the half-maximal inhibitory concentration (IC50) in test [1] (Homo sapiens, THP1-Dual) was more than 1000 nM; in test [2] (setting [3]) it was more than 20 nM.
On to `CCCS(=O)(=O)Nc1cc(C#N)cc(-c2cnc3cc(OC)c(S(=O)(=O)C(C)(C)C)cn23)c1` [Example 282, N-(3-(6-(tert-butylsulfonyl)-7-methoxyimidazo[1,2-a]pyridin-3-yl)-5-cyanophenyl)propane-1-sulfonamide], for which the IC50 was more than 1000 nM in test [1] (Homo sapiens, THP1-Dual) and 2.5 to 20 nM in test [2].
For `COc1cc2ncc(-c3cc(F)nc(OCCCO)c3)n2cc1S(=O)(=O)C(C)(C)C` [Example 129, 3-({6-fluoro-4-[7-methoxy-6-(2-methylpropane-2-sulfonyl)imidazo[1,2-a]pyridin-3-yl]pyridin-2-yl}oxy)propan-1-ol], the IC50 is more than 1000 nM in test [1] (Homo sapiens, THP1-Dual) and more than 20 nM in test [2] (setting [3]).
For the compound `CCCS(=O)(=O)Nc1cc(F)cc(-c2cnc3cc(OC)c(S(=O)(=O)C(C)(C)C)cn23)c1F` [Example 292, N-(3-(6-(tert-butylsulfonyl)-7-methoxyimidazo[1,2-a]pyridin-3-yl)-2,5-difluorophenyl)propane-1-sulfonamide], the IC50 in test [1] (Homo sapiens, THP1-Dual) is more than 1000 nM; in test [2] it was 2.5 to 20 nM.
As to `CCCS(=O)(=O)Nc1cc(-c2cnc3cc(OC)c(S(=O)(=O)C4CC4)cn23)cc(OC)c1OC` [Example 274, N-(5-(6-(cyclopropylsulfonyl)-7-methoxyimidazo[1,2-a]pyridin-3-yl)-2,3-dimethoxyphenyl)propane-1-sulfonamide], the concentration for half-maximal inhibition (IC50) in test [1] (Homo sapiens, THP1-Dual) is 50 to 250 nM; in test [2] it was less than 1 nM.
For `COc1cc2ncc(-c3cc(F)nc(N[C@@H](C)CO)c3)n2cc1S(=O)(=O)C(C)(C)C` [Example 222, (2S)-2-({6-fluoro-4-[7-methoxy-6-(2-methylpropane-2-sulfonyl)imidazo[1,2-a]pyridin-3-yl]pyridin-2-yl}amino)propan-1-ol], the 50% inhibitory concentration (IC50) is less than 50 nM in test [1] (Homo sapiens, THP1-Dual) and 1 to 2.5 nM in test [2].
Turning to `COc1cc2ncc(-c3cnc(N)c(F)c3)n2cc1S(=O)(=O)C(C)(C)C` [Example 73, 5-(6-(tert-butylsulfonyl)-7-methoxyimidazo[1,2-a]pyridin-3-yl)-3-fluoropyridin-2-amine], the IC50 in test [1] (Homo sapiens, THP1-Dual) is more than 1000 nM; in test [2] (setting [3]), more than 20 nM.
Consider `COc1cc2ncc(-c3cnc(N)c(C(F)F)c3)n2cc1S(=O)(=O)C(C)(C)C` [Example 98, 5-(6-(tert-butylsulfonyl)-7-methoxyimidazo[1,2-a]pyridin-3-yl)-3-(difluoromethyl)pyridin-2-amine], for which the IC50 in test [1] (Homo sapiens, THP1-Dual) was more than 1000 nM; in test [2] (setting [3]), more than 20 nM.
For `CCCNc1cc(-c2cnc3cc(OC)c(S(=O)(=O)C(C)(C)C)cn23)cc(F)n1` [Example 181, 4-(6-(tert-butylsulfonyl)-7-methoxyimidazo[1,2-a]pyridin-3-yl)-6-fluoro-N-propylpyridin-2-amine], in that order: less than 50 nM and less than 1 nM.
Take `COc1cc2ncc(-c3cc(F)nc(NC[C@H](F)CO)c3)n2cc1S(=O)(=O)C(C)(C)C` [Example 231, (2S)-2-fluoro-3-({6-fluoro-4-[7-methoxy-6-(2-methylpropane-2-sulfonyl)imidazo[1,2-a]pyridin-3-yl]pyridin-2-yl}amino)propan-1-ol]: the IC50 in test [1] (Homo sapiens, THP1-Dual) is less than 50 nM; in test [2] (setting [3]), less than 1 nM.
For `COc1cc2ncc(-c3cc(F)nc(NCCC4(O)CC4)c3)n2cc1S(=O)(=O)C(C)(C)C` [Example 198, 1-(2-((4-(6-(tert-butylsulfonyl)-7-methoxyimidazo[1,2-a]pyridin-3-yl)-6-fluoropyridin-2-yl)amino)ethyl)cyclo-propan-1-ol], in that order: less than 50 nM and less than 1 nM.
For `COc1cc2ncc(-c3cc(F)c(OC)c(N4CC[C@@H](O)C4=O)c3)n2cc1S(=O)(=O)C(C)(C)C` [Example 307, (R)-1-(5-(6-(tert-butylsulfonyl)-7-methoxyimidazo[1,2-a]pyridin-3-yl)-3-fluoro-2-methoxyphenyl)-3-hydroxypyrrolidin-2-one], in that order: more than 1000 nM and more than 20 nM.
With `Nc1nc(F)c(-c2cnc3ccccn23)cc1F` [Example 121, 5-(1,3a-diaza-3-indenyl)-3,6-difluoro-2-pyridylamine], the 50% inhibitory concentration (IC50) in test [1] (Homo sapiens, THP1-Dual) was more than 1000 nM; in test [2] (setting [3]), more than 20 nM.
`CCCS(=O)(=O)Nc1cc(-c2cnc3cc(OC)c(S(=O)(=O)C(C)(C)C)cn23)cnc1OC(F)F` [Example 286, N-(5-(6-(tert-butylsulfonyl)-7-methoxyimidazo[1,2-a]pyridin-3-yl)-2-(difluoromethoxy)pyridin-3-yl)propane-1-sulfonamide]: the IC50 is more than 1000 nM in test [1] (Homo sapiens, THP1-Dual) and 2.5 to 20 nM in test [2].
Take `COc1cc2ncc(-c3ccc(N)nc3)n2cc1S(=O)(=O)C(C)(C)C` [Example 15, 5-(6-(tert-butylsulfonyl)-7-methoxyimidazo[1,2-a]pyridin-3-yl)pyridin-2-amine]: the IC50 in test [1] (Homo sapiens, THP1-Dual) was more than 1000 nM; in test [2] (setting [3]) it was more than 20 nM.
`COc1cc2ncc(-c3ccc(OC)c(NCCCO)n3)n2cc1S(=O)(=O)C(C)(C)C` [Example 312, 3-((6-(6-(tert-butylsulfonyl)-7-methoxyimidazo[1,2-a]pyridin-3-yl)-3-methoxypyridin-2-yl)amino)propan-1-ol]: the IC50 in test [1] (Homo sapiens, THP1-Dual) is 250 to 1000 nM; in test [2], 2.5 to 20 nM.
As for `COCc1cc(N)cc(-c2cnc3cc(OC)c(S(=O)(=O)C(C)(C)C)cn23)c1` [Example 49, 3-(6-(tert-butylsulfonyl)-7-methoxyimidazo[1,2-a]pyridin-3-yl)-5-(methoxymethyl)aniline], the half-inhibitory concentration (IC50) was 250 to 1000 nM in test [1] (Homo sapiens, THP1-Dual) and more than 20 nM in test [2] (setting [3]).
For the compound `COc1cc2ncc(-c3cc(F)nc(N[C@H]4CC[C@@H](O)CC4)c3)n2cc1S(=O)(=O)C(C)(C)C` [Example 206, (1s,4s)-4-((4-(6-(tert-butylsulfonyl)-7-methoxyimidazo[1,2-a]pyridin-3-yl)-6-fluoropyridin-2-yl)amino)cyclohexan-1-ol], the values for the IC50 in test [1] and in test [2] were less than 50 nM and 1 to 2.5 nM, respectively.
`COc1cc2ncc(-c3cc(F)cc([N+](=O)[O-])c3)n2cc1S(=O)(=O)C(C)(C)C` [Example 13, 3-(3-fluoro-5-nitrophenyl)-7-methoxy-6-(2-methylpropane-2-sulfonyl)imidazo[1,2-a]pyridine]: the half-maximal inhibitory concentration (IC50) in test [1] (Homo sapiens, THP1-Dual) was more than 1000 nM; in test [2], more than 20 nM.
As to `COc1cc2ncc(-c3cc(F)nc(NCC4CCN(C(C)=O)CC4)c3)n2cc1S(=O)(=O)C(C)(C)C` [Example 317, 1-(4-(((4-(6-(tert-butylsulfonyl)-7-methoxyimidazo[1,2-a]pyridin-3-yl)-6-fluoropyridin-2-yl)amino)methyl)piperidin-1-yl)ethan-1-one], the half-maximal inhibitory concentration (IC50) in test [1] (Homo sapiens, THP1-Dual) was less than 50 nM; in test [2] (setting [3]), less than 1 nM.
`COc1cc2ncc(-c3cc(F)nc(N[C@@H]4CCCC[C@H]4O)c3)n2cc1S(=O)(=O)C(C)(C)C` (single isomer, unassigned) [Example 244, trans-(15,2S or 1R,2R)-2-({6-fluoro-4-[7-methoxy-6-(2-methylpropane-2-sulfonyl)imidazo[1,2-a]pyridin-3-yl]pyridin-2-yl}amino)cyclohexan-1-ol]: the IC50 in test [1] (Homo sapiens, THP1-Dual) lay within 250 to 1000 nM; in test [2], 2.5 to 20 nM.
Take `COc1cc2ncc(-c3cc(F)nc(N[C@@H]4CCC[C@@H](O)C4)c3)n2cc1S(=O)(=O)C(C)(C)C` (racemic) [Example 205, rac-(1R,3R)-3-((4-(6-(tert-butylsulfonyl)-7-methoxyimidazo[1,2-a]pyridin-3-yl)-6-fluoropyridin-2-yl)amino)cyclohexan-1-ol]: the half-inhibitory concentration (IC50) in test [1] (Homo sapiens, THP1-Dual) lay in the range of 50 to 250 nM; in test [2], 1 to 2.5 nM.
Regarding `CCCS(=O)(=O)Nc1nc(-c2cnc3cc(OC)c(S(=O)(=O)C(C)(C)C)cn23)ccc1OC(F)(F)F` [Example 313, N-(6-(6-(tert-butylsulfonyl)-7-methoxyimidazo[1,2-a]pyridin-3-yl)-3-(trifluoromethoxy)pyridin-2-yl)propane-1-sulfonamide], the IC50 in test [1] (Homo sapiens, THP1-Dual) was more than 1000 nM; in test [2] (setting [3]) it was more than 20 nM.
Consider `COc1cc2ncc(-c3cc(F)c(OCc4ccccc4)c(NS(C)(=O)=O)c3)n2cc1S(=O)(=O)C(C)(C)C` [Example 147, N-(2-(benzyloxy)-5-(6-(tert-butylsulfonyl)-7-methoxyimidazo[1,2-a]pyridin-3-yl)-3-fluorophenyl) methanesulfonamide], for which the half-inhibitory concentration (IC50) in test [1] (Homo sapiens, THP1-Dual) was more than 1000 nM; in test [2] it was more than 20 nM.
As for `COc1cc2ncc(-c3cccc(S(N)(=O)=O)c3)n2cc1S(=O)(=O)C(C)(C)C` [Example 153, 3-(6-(tert-butylsulfonyl)-7-methoxyimidazo[1,2-a]pyridin-3-yl)benzenesulfonamide], the IC50 in test [1] (Homo sapiens, THP1-Dual) is more than 1000 nM; in test [2] (setting [3]), more than 20 nM.
For `CCCS(=O)(=O)Nc1c(OC)ccc(-c2cnc3cc(OC)c(S(=O)(=O)C(C)(C)C)cn23)c1F` [Example 257, N-(3-(6-(tert-butylsulfonyl)-7-methoxyimidazo[1,2-a]pyridin-3-yl)-2-fluoro-6-methoxyphenyl)propane-1-sulfonamide], the IC50 in test [1] (Homo sapiens, THP1-Dual) was more than 1000 nM; in test [2] (setting [3]), more than 20 nM.
With `COc1cc2ncc(-c3cc(F)nc(NCCS(C)(=N)=O)c3)n2cc1S(=O)(=O)C(C)(C)C` (stereo not shown) [compound 316], the IC50 in test [1] lay in the range of 250 to 1000 nM; in test [2] (setting [3]), 2.5 to 20 nM.
Take `COc1cc2ncc(-c3cccc(NS(=O)(=O)C(C)C)c3)n2cc1S(=O)(=O)C(C)(C)C` [Example 278, N-(3-(6-(tert-butylsulfonyl)-7-methoxyimidazo[1,2-a]pyridin-3-yl)phenyl)propane-2-sulfonamide]: the half-inhibitory concentration (IC50) in test [1] (Homo sapiens, THP1-Dual) was 250 to 1000 nM; in test [2] it was 2.5 to 20 nM.

As a reminder, the IC50 is the concentration at which inhibition is half-maximal.

The values are drawn from patent publication US20250346593A1, “IMIDAZO(1,2-1)PYRIDINE DERIVATIVES AS RIPK2 INHIBITORS” (Interline Therapeutics, Inc., priority 2022, published 2025).
